Assay results reported in patent publication US20160367578A1, “METHODS AND COMPOSITIONS FOR ERADICATING LEUKEMIC CELLS” (priority 2013, published 2016).

Legend:
[1] = test system: Primary MLL-AF9 LKS acute myeloid leukemia cells; experiment: Co-culture viability with enoxolone, leukemia cells (GFP+/7AAD-); assay type: cell-based; conditions: 20 hours, 0, 5, 20, 50, 100 and 200 μM
Procedure: (§1) Primary MLL-AF9^LKS acute myeloid leukemia cells (red bars) were co-cultured with normal BM mononuclear cells (blue bars). Cells in co-culture were exposed to enoxolone for 20 hours (at 0, 5, 20, 50, 100 and 200 μM) and then cell viability was analyzed by flow cytometry (live leukemia cells=GFP+/7AAD−; live normal cells=GFP−/7AAD−).

[2] = test system: normal bone marrow cells; experiment: Co-culture viability with enoxolone, normal bone marrow cells (myeloid vs. non-myeloid); assay type: cell-based; design: dose or concentration left out as unconfirmed; conditions: […] μM, 20 hours
Procedure: as §1
Cells in co-culture were exposed to enoxolone for 20 hours (at 0, 5, 20, 50, 100 and 200 μM).

CC1(C)[C@@H](O)CC[C@]2(C)[C@H]3C(=O)C=C4[C@@H]5C[C@@](C)(C(=O)O)CC[C@]5(C)CC[C@@]4(C)[C@]3(C)CC[C@@H]12 [enoxolone, 18β-glycyrrhetinic acid]
leukemia cell eradication in co-culture with normal BM mononuclear cells [1]: selective leukemia cell eradication | toxicity to normal non-myeloid cells [2]: toxic to normal non-myeloid cells
